According to patent US20230303570A1, “KINASE INHIBITORS AND USES THEREOF” (ABM Therapeutics Corporation, priority 2020, published 2023):

How the values were obtained:
Type in all cases: biochemical
c-Kit = c-Kit (Homo sapiens, UniProt P10721); test: cKit kinase mobility shift assay
In short: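 Human kinase with DTT in 50 mM HEPES pH 7.5 and 0.01% Triton X-100 was preincubated with compound for 10 min at room temperature, using a 5-point dilution in duplicate. FAM-labeled peptide, ATP and MgCl2 were then added and the reaction run at 28° C. Reactions were stopped with EDTA buffer and peptide conversion was read by Caliper mobility shift.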

Axl = target: T1, Axl (Homo sapiens, UniProt P30530); test: AXL kinase mobility shift assay
T1 sequence (P30530 26-894): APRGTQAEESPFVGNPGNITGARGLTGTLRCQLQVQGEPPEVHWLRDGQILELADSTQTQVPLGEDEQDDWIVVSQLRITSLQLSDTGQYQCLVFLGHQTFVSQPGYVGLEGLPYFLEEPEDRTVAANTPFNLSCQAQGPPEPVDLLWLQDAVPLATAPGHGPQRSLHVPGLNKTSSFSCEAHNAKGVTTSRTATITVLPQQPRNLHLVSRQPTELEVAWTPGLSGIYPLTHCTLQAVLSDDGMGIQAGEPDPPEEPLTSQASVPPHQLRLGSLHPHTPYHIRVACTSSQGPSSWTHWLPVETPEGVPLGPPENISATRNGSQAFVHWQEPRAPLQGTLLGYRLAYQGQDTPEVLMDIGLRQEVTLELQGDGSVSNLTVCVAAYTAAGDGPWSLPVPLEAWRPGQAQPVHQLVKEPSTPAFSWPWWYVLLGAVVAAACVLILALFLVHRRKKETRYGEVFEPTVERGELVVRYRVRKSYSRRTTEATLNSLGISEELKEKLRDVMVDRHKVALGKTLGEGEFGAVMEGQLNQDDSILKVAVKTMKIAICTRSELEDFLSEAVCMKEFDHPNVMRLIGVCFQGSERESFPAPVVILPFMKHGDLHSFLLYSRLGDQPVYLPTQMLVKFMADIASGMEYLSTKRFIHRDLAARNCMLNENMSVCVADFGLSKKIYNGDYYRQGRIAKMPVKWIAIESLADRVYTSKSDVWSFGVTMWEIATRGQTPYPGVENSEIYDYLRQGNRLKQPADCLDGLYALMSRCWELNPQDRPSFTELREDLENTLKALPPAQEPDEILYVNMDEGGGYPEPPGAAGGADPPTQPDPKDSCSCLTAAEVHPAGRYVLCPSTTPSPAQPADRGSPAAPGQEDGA
Method: The effect of the compounds on the activity of cKit, RET and AXL kinases were assessed by Mobility shift assay. • 1. 1× kinase base buffer and stop buffer for testing kinases were prepared • 1-1) 1× Kinase base buffer (50 mM HEPES, pH 7.5, 0.01% Triton X-100) • 1-2) Stop buffer (100 mM HEPES, pH 7.5, 0.015% Brij-35, 0.2% Coating Reagent #3, 50 mM EDTA) • 2. Compound and assay plate preparation: the compound was diluted to 50× of the final desired highest inhibitor concentration in reaction by 100% DMSO. 100 μl of this compound dilution was transferred to a well in a 96-well plate. For example, if the highest desired concentration was 5 μM, then 250 μM of compound DMSO solution was prepared in this step. For all compounds, the compound was serially diluted by transferring 10 μl to 70 μl of 100 DMSO in the next well and so forth for a total of 5 concentrations. 100 μl of 100% DMSO was added to two empty wells for no compound control and no enzyme control in the same 96-well plate. The plate was labeled as source plate. The intermediate plate was prepared by transferring 10 μl of compound from source plate to a new 96-well plate as the intermediate plate, adding 90 μl of 1× kinase buffer to each well of the intermediate plate, mixing the compounds in intermediate plate for 10 min on shaker. 5 μl of each well from the 96-well intermediate plate were transferred to a 384-well plate in duplicates. For example, A1 of the 96-well plate was transferred to A1 and A2 of the 384-well plate. A2 of the 96-well plate was transferred to A3 and A4 of the 384-well plate, and so on. • 4. Kinase reaction: The assay plate already contained 5 μl of compound in 10% DMSO. A 2.5× enzyme solution was prepared by adding kinases (cKit, RET, or AXL) and DTT in 1× kinase base buffer. 2.5× enzyme solution was transferred to the assay plate (by adding 10 μl of 2.5× enzyme solution to each well of the 384-well assay plate). The plate was incubated at room temperature for 10 min. 2.5× peptide solution was prepared by adding FAM-labeled peptide, ATP, MgCl2 in the 1× kinase base buffer. 2.5× peptide solution was added to the assay plate by adding 10 μl of 2.5× peptide solution to each well of the 384-well assay plate. The plate was incubated at 28° C. for the specified period of time. 25 μl of stop buffer was added to stop reaction. Data was collected on Caliper.

HPK1 (MAP4K1) = HPK1 (MAP4K1) (Homo sapiens, UniProt Q92918); test: HPK1 (MAP4K1) kinase Lantha screen assay
Sequence of HPK1 (MAP4K1) (Q92918 whole entry, species assumed): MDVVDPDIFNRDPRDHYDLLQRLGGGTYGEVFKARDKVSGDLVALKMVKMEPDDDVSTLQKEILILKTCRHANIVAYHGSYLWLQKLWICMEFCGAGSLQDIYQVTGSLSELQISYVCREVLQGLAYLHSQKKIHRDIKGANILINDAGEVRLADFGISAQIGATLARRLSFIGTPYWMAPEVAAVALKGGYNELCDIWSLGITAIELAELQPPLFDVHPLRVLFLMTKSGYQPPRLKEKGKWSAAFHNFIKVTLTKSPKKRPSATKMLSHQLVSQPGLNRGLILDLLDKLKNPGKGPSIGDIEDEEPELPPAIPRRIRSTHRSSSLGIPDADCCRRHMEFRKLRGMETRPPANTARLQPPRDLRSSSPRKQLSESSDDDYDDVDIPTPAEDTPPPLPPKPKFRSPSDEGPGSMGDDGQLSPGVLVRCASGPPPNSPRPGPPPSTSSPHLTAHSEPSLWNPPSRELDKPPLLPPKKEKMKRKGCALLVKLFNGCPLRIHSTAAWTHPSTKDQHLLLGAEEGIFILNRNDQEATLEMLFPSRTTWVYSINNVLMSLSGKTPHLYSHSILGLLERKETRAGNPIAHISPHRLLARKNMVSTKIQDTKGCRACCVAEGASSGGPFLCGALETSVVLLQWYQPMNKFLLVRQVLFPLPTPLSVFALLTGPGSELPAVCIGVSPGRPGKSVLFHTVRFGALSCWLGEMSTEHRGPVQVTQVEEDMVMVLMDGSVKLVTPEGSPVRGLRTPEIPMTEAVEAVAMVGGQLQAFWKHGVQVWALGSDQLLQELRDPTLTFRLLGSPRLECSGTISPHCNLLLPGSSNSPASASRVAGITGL
In short: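 Recombinant MAP4K1 preincubated 10 min with compound (6-point dilution, duplicates) in 50 mM HEPES pH 7.5, 10 mM MgCl2, then reacted with Fluorescein-PKC substrate and ATP for 90 min at room temperature. Antibody detection solution stopped reaction; after 60 min, TR-FRET read at ex 340 nm, em 520/495 nm.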

Sequence of c-Kit (P10721 26-976): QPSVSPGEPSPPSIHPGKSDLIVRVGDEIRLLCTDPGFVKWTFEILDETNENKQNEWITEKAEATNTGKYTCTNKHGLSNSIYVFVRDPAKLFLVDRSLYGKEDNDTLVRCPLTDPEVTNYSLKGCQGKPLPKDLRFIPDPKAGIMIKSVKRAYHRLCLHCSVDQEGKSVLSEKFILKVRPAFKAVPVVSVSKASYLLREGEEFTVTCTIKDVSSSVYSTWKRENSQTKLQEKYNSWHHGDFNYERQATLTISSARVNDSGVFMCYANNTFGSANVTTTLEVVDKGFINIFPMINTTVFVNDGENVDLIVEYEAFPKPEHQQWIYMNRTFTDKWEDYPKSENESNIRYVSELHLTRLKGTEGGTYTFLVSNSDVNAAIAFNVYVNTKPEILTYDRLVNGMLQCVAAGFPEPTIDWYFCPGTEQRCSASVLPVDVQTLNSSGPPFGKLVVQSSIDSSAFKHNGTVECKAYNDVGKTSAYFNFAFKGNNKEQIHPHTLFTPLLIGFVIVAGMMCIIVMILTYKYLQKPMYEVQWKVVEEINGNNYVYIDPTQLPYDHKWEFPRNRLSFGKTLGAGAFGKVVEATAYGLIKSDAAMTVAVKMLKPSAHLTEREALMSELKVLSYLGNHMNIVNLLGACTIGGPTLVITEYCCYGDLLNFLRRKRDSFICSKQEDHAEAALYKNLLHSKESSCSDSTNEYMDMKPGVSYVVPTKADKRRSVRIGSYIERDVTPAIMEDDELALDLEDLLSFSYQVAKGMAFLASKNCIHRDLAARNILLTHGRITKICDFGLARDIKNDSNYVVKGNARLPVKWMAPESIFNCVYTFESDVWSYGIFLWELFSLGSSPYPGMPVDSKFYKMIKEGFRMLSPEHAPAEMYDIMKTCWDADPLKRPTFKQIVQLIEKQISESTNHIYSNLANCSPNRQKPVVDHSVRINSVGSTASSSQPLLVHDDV

| SMILES | IC50 (c-Kit) | IC50 (Axl) | IC50 (HPK1 (MAP4K1)) |
| --- | --- | --- | --- |
| CNc1ncc2c(n1)N1CCN=C1C(c1cc(NC(=O)Nc3cc(C(F)(F)F)ccc3Cl)c(F)cc1C)=C2 [Compound 335, 1-(2-chloro-5-(trifluoromethyl)phenyl)-3-(2-fluoro-4-methyl-5-(2-(methylamino)-8,9-dihydroimidazo[1′,2′:1,6]pyrido[2,3-d]pyrimidin-6-yl)phenyl)urea] | < 0.1 µM | > 10 µM |  |
| CNc1ncc2c(n1)N1CCN=C1C(c1ccc(C(=O)Nc3cc(C(F)(F)F)ccn3)cc1C)=C2 [Compound 276, 3-methyl-4-(2-(methylamino)-8,9-dihydroimidazo[1′,2′:1,6]pyrido[2,3-d]pyrimidin-6-yl)-N-(4-(trifluoromethyl)pyridin-2-yl)benzamide] |  | > 10 µM | 0.1 to 10 µM |
| CNc1ncc2c(n1)N1CCN=C1C(c1cc(NS(=O)(=O)c3cccc(C(F)(F)F)c3)c(F)cc1C)=C2 [Compound 285, N-(2-fluoro-4-methyl-5-(2-(methylamino)-8,9-dihydroimidazo[1′,2′:1,6]pyrido[2,3-d]pyrimidin-6-yl)phenyl)-3-(trifluoromethyl)benzenesulfonamide] | > 10 µM | > 10 µM |  |
| CNc1ncc2c(n1)N1CCN=C1C(c1c(C)ccc(NS(=O)(=O)c3ccccc3Cl)c1F)=C2 [Compound 287, 2-chloro-N-(2-fluoro-4-methyl-3-(2-(methylamino)-8,9-dihydroimidazo[1′,2′:1,6]pyrido[2,3-d]pyrimidin-6-yl)phenyl)benzenesulfonamide] | 0.1 to 10 µM | < 0.1 µM |  |
| CNc1ncc2c(n1)N1CCN=C1C(c1ccc(C(=O)Nc3cc(C(F)(F)F)ccn3)cc1)=C2 [Compound 273, 4-(2-(methylamino)-8,9-dihydroimidazo[1′,2′:1,6]pyrido[2,3-d]pyrimidin-6-yl)-N-(4-(trifluoromethyl)pyridin-2-yl)benzamide] |  | 0.1 to 10 µM |  |

Results, then the compound that gave them:

| IC50 (c-Kit) | IC50 (Axl) | IC50 (HPK1 (MAP4K1)) | SMILES |
| --- | --- | --- | --- |
| 0.1 to 10 µM | > 10 µM |  | CNc1ncc2c(n1)N1CCN=C1C(c1c(C)ccc(NC(=O)Nc3ccccc3Cl)c1F)=C2 [Compound 336, 1-(2-chlorophenyl)-3-(2-fluoro-4-methyl-3-(2-(methylamino)-8,9-dihydroimidazo[1′,2′:1,6]pyrido[2,3-d]pyrimidin-6-yl)phenyl)urea] |
| < 0.1 µM | > 10 µM |  | CNc1ncc2c(n1)N1CCN=C1C(c1cc(NC(=O)Nc3cc(C(F)(F)F)ccc3F)c(F)cc1C)=C2 [Compound 333, 1-(2-fluoro-4-methyl-5-(2-(methylamino)-8,9-dihydroimidazo[1′,2′:1,6]pyrido[2,3-d]pyrimidin-6-yl)phenyl)-3-(2-fluoro-5-(trifluoromethyl)phenyl)urea] |
|  | > 10 µM |  | Cc1ccc(Nc2ncc3c(n2)N2CCN=C2C(c2cc(NC(=O)c4cn(C(C)C)c(=O)n(-c5ccc(F)cc5)c4=O)ccc2C)=C3)cn1 [Compound 266, 3-(4-fluorophenyl)-1-isopropyl-N-(4-methyl-3-(2-((6-methylpyridin-3-yl)amino)-8,9-dihydroimidazo[1′,2′:1,6]pyrido[2,3-d]pyrimidin-6-yl)phenyl)-2,4-dioxo-1,2,3,4-tetrahydropyrimidine-5-carboxamide] |
|  | > 10 µM | 0.1 to 10 µM | CNc1ncc2c(n1)N1CCN=C1C(c1cc(NC(=O)c3cn(C(C)C)c(=O)n(-c4ccc(F)cc4)c3=O)ccc1C)=C2 [Compound 193, 3-(4-fluorophenyl)-1-isopropyl-N-(4-methyl-3-(2-(methylamino)-8,9-dihydroimidazo[1′,2′:1,6]pyrido[2,3-d]pyrimidin-6-yl)phenyl)-2,4-dioxo-1,2,3,4-tetrahydropyrimidine-5-carboxamide] |
| > 10 µM | > 10 µM |  | CNc1ncc2c(n1)N1CCN=C1C(c1cc(NS(=O)(=O)c3ccccc3F)ccc1C)=C2 [Compound 289, 2-fluoro-N-(4-methyl-3-(2-(methylamino)-8,9-dihydroimidazo[1′,2′:1,6]pyrido[2,3-d]pyrimidin-6-yl)phenyl)benzenesulfonamide] |
